Test results reported in ChEMBL document CHEMBL1201862, “PubChem BioAssay data set” (2004).
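Test compounds were applied to cells in 96-well plates for 48 hours at 5 doses. GI50 = concentration required for 50% inhibition of growth.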 Calls of active or inactive are those of the source. No stated cut-off is given here; in the data, active = GI50 up to about 1.1 µM and inactive = higher.

Key:
Assay in all cases: growth of human tumour cells (NCI), 48 h
[1] = tested on: OVCAR-4
[2] = tested on: SR
[3] = tested on: HCT-15
[4] = tested on: OVCAR-8
[5] = tested on: RPMI-8226
[6] = tested on: HCT-116
[7] = tested on: SF-295
[8] = tested on: HOP-62
[9] = tested on: KM12
[10] = tested on: SNB-19
[11] = tested on: UACC-257
[12] = tested on: NCI-H460
[13] = tested on: TK-10
[14] = tested on: NCI/ADR-RES
[15] = tested on: Malme-3M
[16] = tested on: EKVX
[17] = tested on: HT-29
[18] = tested on: CAKI-1
[19] = tested on: SK-MEL-5
[20] = tested on: UACC-62
[21] = tested on: 786-0
[22] = tested on: NCI-H226
[23] = tested on: IGROV-1
[24] = tested on: CCRF-CEM
[25] = tested on: M14
[26] = tested on: U-251
[27] = tested on: UO-31
[28] = tested on: PC-3
[29] = tested on: MDA-N
[30] = tested on: COLO 205
[31] = tested on: A549
[32] = tested on: SK-MEL-2
[33] = tested on: HCC 2998
[34] = tested on: SN12C
[35] = tested on: MDA-MB-231
[36] = tested on: NCI-H522
[37] = tested on: Hs-578T
[38] = tested on: MOLT-4
[39] = tested on: RXF 393
[40] = tested on: SK-MEL-28
[41] = tested on: OVCAR-5
[42] = tested on: HOP-92
[43] = tested on: DU-145
[44] = tested on: LOX IMVI
[45] = tested on: BT-549
[46] = tested on: A498
[47] = tested on: K562
[48] = tested on: NCI-H23
[49] = tested on: MCF7
[50] = tested on: ACHN
[51] = tested on: OVCAR-3
[52] = tested on: SF-268
[53] = tested on: SW-620
[54] = tested on: HL-60
[55] = tested on: SF-539
[56] = tested on: MDA-MB-435
[57] = tested on: SK-OV-3
[58] = tested on: SNB-75

## CCOC(=O)c1cc(NC(=O)c2ccccc2)c(=O)n2c(cc3c(Cl)cccc32)c1O
[1]
  GI50: > 100 µM (inactive)
[2]
  GI50: > 100 µM (inactive)
[3]
  GI50: > 100 µM
[4]
  GI50: > 100 µM (inactive)
[5]
  GI50: 80.4 µM (inactive)
[6]
  GI50: > 100 µM (inactive)
[7]
  GI50: 57.4 µM (inactive)
[8]
  GI50: > 100 µM (inactive)
[9]
  GI50: > 100 µM (inactive)
[10]
  GI50: > 100 µM (inactive)
[11]
  GI50: > 100 µM (inactive)
[12]
  GI50: > 100 µM (inactive)
[13]
  GI50: > 100 µM (inactive)
[14]
  GI50: > 100 µM (inactive)
[15]
  GI50: > 100 µM (inactive)
[16]
  GI50: > 100 µM (inactive)
[17]
  GI50: > 100 µM (inactive)
[18]
  GI50: > 100 µM (inactive)
[19]
  GI50: > 100 µM (inactive)
[20]
  GI50: > 100 µM (inactive)
[21]
  GI50: > 100 µM (inactive)
[22]
  GI50: > 100 µM (inactive)
[23]
  GI50: > 100 µM (inactive)
[24]
  GI50: 95.5 µM (inactive)
[25]
  GI50: > 100 µM (inactive)
[26]
  GI50: > 100 µM (inactive)
[27]
  GI50: > 100 µM (inactive)
[28]
  GI50: > 100 µM (inactive)
[29]
  GI50: > 100 µM (inactive)
[30]
  GI50: > 100 µM (inactive)
[31]
  GI50: > 100 µM (inactive)
[32]
  GI50: > 100 µM (inactive)
[33]
  GI50: > 100 µM (inactive)
[34]
  GI50: > 100 µM (inactive)
[35]
  GI50: > 100 µM (inactive)
[36]
  GI50: > 100 µM (inactive)
[37]
  GI50: > 100 µM (inactive)
[38]
  GI50: > 100 µM (inactive)
[39]
  GI50: > 100 µM (inactive)
[40]
  GI50: > 100 µM (inactive)
[41]
  GI50: > 100 µM (inactive)
[42]
  GI50: > 100 µM (inactive)
[43]
  GI50: > 100 µM (inactive)
[44]
  GI50: > 100 µM (inactive)
[45]
  GI50: > 100 µM (inactive)
[46]
  GI50: > 100 µM (inactive)
[47]
  GI50: > 100 µM (inactive)
[48]
  GI50: > 100 µM (inactive)
[49]
  GI50: > 100 µM (inactive)
[50]
  GI50: > 100 µM (inactive)
[51]
  GI50: > 100 µM (inactive)
[52]
  GI50: > 100 µM (inactive)
[53]
  GI50: > 100 µM (inactive)
[54]
  GI50: > 100 µM (inactive)
[55]
  GI50: > 100 µM (inactive)
[56]
  GI50: > 100 µM (inactive)
[57]
  GI50: > 100 µM (inactive)

## CC(=O)C1(C(=O)C(=[N+]=[N-])S(=O)(=O)c2ccccc2)CC1
[2]
  GI50: > 100 µM (inactive)
[3]
  GI50: > 100 µM
[4]
  GI50: > 100 µM (inactive)
[5]
  GI50: 83.2 µM (inactive)
[6]
  GI50: > 100 µM (inactive)
[7]
  GI50: > 100 µM (inactive)
[8]
  GI50: > 100 µM (inactive)
[9]
  GI50: > 100 µM (inactive)
[10]
  GI50: > 100 µM (inactive)
[11]
  GI50: > 100 µM (inactive)
[12]
  GI50: > 100 µM (inactive)
[13]
  GI50: > 100 µM (inactive)
[14]
  GI50: > 100 µM (inactive)
[15]
  GI50: > 100 µM (inactive)
[16]
  GI50: > 100 µM (inactive)
[17]
  GI50: > 100 µM (inactive)
[19]
  GI50: > 100 µM (inactive)
[20]
  GI50: > 100 µM (inactive)
[21]
  GI50: > 100 µM (inactive)
[22]
  GI50: > 100 µM (inactive)
[23]
  GI50: > 100 µM (inactive)
[24]
  GI50: 40.2 µM (inactive)
[25]
  GI50: > 100 µM (inactive)
[58]
  GI50: > 100 µM (inactive)
[26]
  GI50: > 100 µM (inactive)
[27]
  GI50: > 100 µM (inactive)
[28]
  GI50: > 100 µM (inactive)
[29]
  GI50: > 100 µM (inactive)
[30]
  GI50: > 100 µM (inactive)
[31]
  GI50: > 100 µM (inactive)
[32]
  GI50: > 100 µM (inactive)
[33]
  GI50: > 100 µM (inactive)
[34]
  GI50: > 100 µM (inactive)
[35]
  GI50: > 100 µM (inactive)
[36]
  GI50: > 100 µM (inactive)
[37]
  GI50: > 100 µM (inactive)
[38]
  GI50: 83.8 µM (inactive)
[39]
  GI50: > 100 µM (inactive)
[40]
  GI50: > 100 µM (inactive)
[41]
  GI50: > 100 µM (inactive)
[43]
  GI50: > 100 µM (inactive)
[44]
  GI50: > 100 µM (inactive)
[45]
  GI50: > 100 µM (inactive)
[47]
  GI50: 80.4 µM (inactive)
[48]
  GI50: > 100 µM (inactive)
[49]
  GI50: > 100 µM (inactive)
[50]
  GI50: > 100 µM (inactive)
[51]
  GI50: > 100 µM (inactive)
[52]
  GI50: > 100 µM (inactive)
[53]
  GI50: > 100 µM (inactive)
[54]
  GI50: 74.1 µM (inactive)
[55]
  GI50: > 100 µM (inactive)
[56]
  GI50: > 100 µM (inactive)

## Nc1ncnc2c1ncn2C1OC(CO)CC1O (configuration not stated)
[1]
  GI50: > 100 µM (inactive)
[2]
  GI50: > 100 µM (inactive)
[3]
  GI50: 17.6 µM
[4]
  GI50: 16.6 µM (inactive)
[6]
  GI50: 20 µM (inactive)
[7]
  GI50: 58.7 µM (inactive)
[8]
  GI50: 29.3 µM (inactive)
[9]
  GI50: 22 µM (inactive)
[10]
  GI50: 26.9 µM (inactive)
[11]
  GI50: > 100 µM (inactive)
[13]
  GI50: > 100 µM (inactive)
[14]
  GI50: 20.3 µM (inactive)
[16]
  GI50: 40.6 µM (inactive)
[18]
  GI50: > 100 µM (inactive)
[19]
  GI50: > 100 µM (inactive)
[20]
  GI50: 36.6 µM (inactive)
[21]
  GI50: 17.5 µM (inactive)
[22]
  GI50: > 100 µM (inactive)
[23]
  GI50: > 100 µM (inactive)
[24]
  GI50: 34.3 µM (inactive)
[25]
  GI50: 38.2 µM (inactive)
[58]
  GI50: 35.2 µM (inactive)
[26]
  GI50: 41.7 µM (inactive)
[27]
  GI50: > 100 µM (inactive)
[28]
  GI50: 9.27 µM (inactive)
[29]
  GI50: 38.7 µM (inactive)
[30]
  GI50: 93.5 µM (inactive)
[31]
  GI50: 75.7 µM (inactive)
[33]
  GI50: 19 µM (inactive)
[34]
  GI50: 25.6 µM (inactive)
[35]
  GI50: 17.9 µM (inactive)
[36]
  GI50: 18 µM (inactive)
[37]
  GI50: 25.5 µM (inactive)
[38]
  GI50: > 100 µM (inactive)
[39]
  GI50: > 100 µM (inactive)
[40]
  GI50: 25.6 µM (inactive)
[41]
  GI50: > 100 µM (inactive)
[42]
  GI50: 40.4 µM (inactive)
[43]
  GI50: 30.1 µM (inactive)
[44]
  GI50: 21.4 µM (inactive)
[45]
  GI50: 29.9 µM (inactive)
[47]
  GI50: 7.93 µM (inactive)
[48]
  GI50: 90.8 µM (inactive)
[49]
  GI50: 6.08 µM (inactive)
[50]
  GI50: > 100 µM (inactive)
[51]
  GI50: 39.3 µM (inactive)
[52]
  GI50: 53.7 µM (inactive)
[53]
  GI50: 35.1 µM (inactive)
[54]
  GI50: > 10 µM (inactive)
[55]
  GI50: 34.7 µM (inactive)
[56]
  GI50: > 10 µM (inactive)
[57]
  GI50: 51.9 µM (inactive)
